For the experiment, the target named is T1, hDGAT1 (Homo sapiens, UniProt O75907).
T1 construct: host or cells: Sf9 insect cells (baculovirus); microsomal preparation
T1 sequence (O75907 1-488): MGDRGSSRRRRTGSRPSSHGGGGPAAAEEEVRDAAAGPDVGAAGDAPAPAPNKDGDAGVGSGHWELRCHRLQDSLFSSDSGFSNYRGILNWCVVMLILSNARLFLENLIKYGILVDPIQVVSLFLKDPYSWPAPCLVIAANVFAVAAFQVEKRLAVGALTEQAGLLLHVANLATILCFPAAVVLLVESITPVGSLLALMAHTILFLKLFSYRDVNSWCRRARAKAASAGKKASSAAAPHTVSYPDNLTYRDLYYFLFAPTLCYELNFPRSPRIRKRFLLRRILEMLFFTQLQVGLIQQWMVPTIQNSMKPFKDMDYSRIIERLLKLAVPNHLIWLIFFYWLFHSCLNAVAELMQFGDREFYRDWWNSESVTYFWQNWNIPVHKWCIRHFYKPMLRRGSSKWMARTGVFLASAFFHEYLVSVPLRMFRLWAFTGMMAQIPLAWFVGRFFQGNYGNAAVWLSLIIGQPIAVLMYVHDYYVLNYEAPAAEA
Put plainly: In-vitro DGAT1 assay (hDGAT1 microsomes from Sf9 cells, 14C oleoyl CoA, triglyceride formation). It counts as biochemical. A digest of the protocol: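 Human DGAT1 in baculovirus-infected Sf9 microsomes (2.5–10 μg), [14C]oleoyl-CoA with 409.5, 1228.5 or 1638 μM 1,2-dioleoyl-sn-glycerol, Tris-HCl pH 7.4 buffer with BSA. Compounds screened at 10, 5 and 1 μM in duplicate. Reaction 10 min at 37 °C; heptane-extracted [14C]triglyceride counted by scintillation.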

Structures are written as SMILES.

For `COc1ccc(NC(=O)Nc2ccc(-c3cc(C(=O)N[C@H](C(=O)O)C(C)C)on3)cc2)c(OC)c1` [Example 169, (S)-2-(3-(4-(3-(2,4-dimethoxyphenyl)ureido)phenyl)isoxazole-5-carboxamido)-3-methylbutanoic acid], the inhibition at 1 µM lay in the range of 50 to 75%. The compound `COC(=O)C(NC(=O)c1cc(-c2ccc(NC(=O)NCc3ccccc3)cc2)no1)C(C)C` (stereo not drawn) [Example 107, Methyl 2-(3-(4-(3-benzylureido)phenyl)isoxazole-5-carboxamido)-3-methylbutanoate] yielded an inhibition at 10 µM of 0 to 50%. Same read-out and setting: with `COC(=O)C(CC(C)C)NC(=O)c1cc(-c2ccc(NC(=O)NCc3ccccc3)cc2)no1` (stereo not drawn) [Example 109, Methyl 2-(3-(4-(3-benzylureido)phenyl)isoxazole-5-carboxamido)-4-methylpentanoate] the figure was 0 to 50%; with `COC(=O)C(CC(C)C)NC(=O)c1cc(-c2ccc(NC(=O)Nc3ccc(F)cc3F)cc2C)no1` (stereo not drawn) [Example 139, Methyl 2-(3-(4-(3-(2,4-difluorophenyl)ureido)-2-methylphenyl)isoxazole-5-carboxamido)-4-methylpentanoate], 0 to 50%. On to `COC(=O)[C@@H](NC(=O)c1nc(-c2ccc(NC(=S)Nc3cccc(F)c3)cc2)no1)C(C)C` [Example 353, (S)-Methyl 2-(3-(4-(3-(3-fluorophenyl)thioureido)phenyl)-1,2,4-oxadiazole-5-carboxamido)-3-methylbutanoate], for which the inhibition at 5 µM fell in the range of 0 to 50%.

On to `COc1ccc(NC(=O)Nc2ccc(-c3noc(C(=O)N[C@H](C(=O)O)C(C)C)n3)cc2)cc1` [Example 345, (S)-2-(3-(4-(3-(4-methoxyphenyl)ureido)phenyl)-1,2,4-oxadiazole-5-carboxamido)-3-methylbutanoic acid], for which the inhibition at 5 µM fell in the range of 50 to 75%. Take `CC(C)(NC(=O)c1cc(-c2ccc(NC(=O)Nc3ccc(F)cc3)cc2)no1)C(=O)O` [Example 118, 2-(3-(4-(3-(4-fluorophenyl)ureido)phenyl)isoxazole-5-carboxamido)-2-methylpropanoic acid]: the inhibition at 10 µM fell in the range of 50 to 75%.

The compound `Cc1ccc(NC(=O)Nc2ccc(-c3cc(C(=O)NC(C(=O)O)C(C)C)on3)cc2)cc1F` (stereo not drawn) [Example 250, 2-(3-(4-(3-(3-Fluoro-4-methylphenyl)ureido)phenyl)isoxazole-5-carboxamido)-3-methylbutanoic acid] came in with an inhibition at 1 µM of 75 to 100%. `COC(=O)C(NC(=O)c1cc(-c2ccc(NC(=O)Nc3ccc(F)cc3F)cc2C)no1)C(C)C` (stereo not drawn) [Example 137, Methyl 2-(3-(4-(3-(2,4-difluorophenyl)ureido)-2-methylphenyl)isoxazole-5-carboxamido)-3-methylbutanoate] yielded an inhibition at 10 µM of 0 to 50%.

Take `CC(C)[C@H](NC(=O)c1cc(-c2ccc(NC(=O)Nc3c(Cl)cccc3C(F)(F)F)cc2)no1)C(=O)O` [Example 234, (S)-2-(3-(4-(3-(2-Chloro-6-(trifluoromethyl)phenyl)ureido)phenyl)isoxazole-5-carboxamido)-3-methylbutanoic acid]: the inhibition at 1 µM fell in the range of 0 to 50%. Still for that read-out and setting: next, `COC(=O)[C@H](NC(=O)c1cc(-c2ccc(NC(=O)Nc3ccccc3C#N)cc2)no1)C(C)C` [Example 216, (R)-methyl 2-(3-(4-(3-(2-cyanophenyl)ureido)phenyl)isoxazole-5-carboxamido)-3-methylbutanoate]: 0 to 50%. As for `COC(=O)[C@H](CC(C)C)NC(=O)c1onc(-c2ccc(NC(=O)Nc3ccccc3)cc2)c1-c1ccccc1` [Example 90, (S)-4-Methyl-2-({4-phenyl-3-[4-(3-phenyl-ureido)-phenyl]-isoxazole-5-carbonyl}-amino)-pentanoic acid methyl ester], the inhibition at 10 µM was 0 to 50%. Take `COC(=O)[C@H](NC(=O)c1cc(-c2ccc(NS(=O)(=O)c3ccccc3F)cc2)no1)C(C)C` [Example 315, (R)-methyl 2-(3-(4-(2-fluorophenylsulfonamido)phenyl)isoxazole-5-carboxamido)-3-methylbutanoate]: the inhibition at 1 µM is 0 to 50%. `COC(=O)[C@@H](NC(=O)c1nc(-c2ccc(NC(=S)Nc3ccccc3F)cc2)no1)C(C)C` [Example 355, (S)-methyl 2-(3-(4-(3-(2-fluorophenyl)thioureido)phenyl)-1,2,4-oxadiazole-5-carboxamido)-3-methylbutanoate] showed an inhibition at 5 µM of 50 to 75%. Consider `O=C(Nc1ccc(-c2cc(C(=O)NC(Cc3ccccc3)C(=O)O)on2)cc1)Nc1ccc(F)cc1F` (stereo not drawn) [Example 246, 2-(3-(4-(3-(2,4-Difluorophenyl)ureido)phenyl)isoxazole-5-carboxamido)-3-phenylpropanoic acid], for which the inhibition at 5 µM fell in the range of 50 to 75%.

Compound `CC(C)[C@H](NC(=O)c1cc(-c2ccc(NC(=O)Nc3cc(F)cc(F)c3)cc2)no1)C(=O)O` [Example 167, (S)-2-(3-(4-(3-(3,5-difluorophenyl)ureido)phenyl)isoxazole-5-carboxamido)-3-methylbutanoic acid] yielded an inhibition at 1 µM of 75 to 100%. Take `Cc1cc(-c2cc(C(=O)NC(CC(C)C)C(=O)O)on2)ccc1NC(=O)Nc1c(F)cccc1F` (stereo not drawn) [Example 100, 2-(3-(4-(3-(2,6-Difluorophenyl)ureido)-3-methylphenyl)isoxazole-5-carboxamido)-4-methylpentanoic acid]: the inhibition at 10 µM was in the range of 0 to 50%. `COC(=O)[C@@H]1CCCN1C(=S)c1cc(-c2cccc(Nc3nc4ccc(F)cc4s3)c2)no1` [Example 36, (S)-1-{3-[3-(6-Fluoro-benzothiazol-2-ylamino)-phenyl]-isoxazole-5-carbothioyl}-pyrrolidine-2-carboxylic acid methyl ester] yielded an inhibition at 10 µM of 50 to 75%. Compound `CCOC(=O)c1cc(-c2cccc(Nc3nc4ccc(F)cc4s3)c2)no1` [Example 20, 3-[3-(6-Fluoro-benzothiazol-2-ylamino)-phenyl]-isoxazole-5-carboxylic acid ethyl ester] showed an inhibition at 10 µM of 0 to 50%.

In turn, `COC(=O)C1(NC(=O)c2cc(-c3ccc(NC(=O)Nc4ccc(F)cc4)cc3)no2)CCCC1` [Example 119, Methyl 1-(3-(4-(3-(4-fluorophenyl)ureido)phenyl)isoxazole-5-carboxamido)cyclopentanecarboxylate] came in with an inhibition at 10 µM of 50 to 75%. Compound `COC(=O)[C@H](NC(=O)c1cc(-c2ccc(NC(=O)Nc3ccccc3F)cc2)no1)C(C)C` [Example 257, (R)-Methyl 2-(3-(4-(3-(2-fluorophenyl)ureido)phenyl)isoxazole-5-carboxamido)-3-methylbutanoate] gave an inhibition at 1 µM of 0 to 50%.

`CC(C)[C@H](NC(=O)c1cc(-c2ccc(NC(=O)Nc3ccc(C(F)(F)F)cc3Cl)cc2)no1)C(=O)O` [Example 232, (S)-2-(3-(4-(3-(2-Chloro-4-(trifluoromethyl)phenyl)ureido)phenyl)isoxazole-5-carboxamido)-3-methylbutanoic acid]: the inhibition at 1 µM lay in the range of 75 to 100%. In turn, `CC(C)[C@H](NC(=NO)c1cc(-c2ccc(Nc3nc4ccc(F)cc4s3)cc2)no1)C(=O)O` [Example 8, (S)-2-({3-[4-(6-Fluoro-benzothiazol-2-ylamino)-phenyl]-N-hydroxy-isoxazole-5-carboximidoyl}-amino)-3-methyl-butyric acid] yielded an inhibition at 10 µM of 50 to 75%. In turn, `O=C(Nc1ccc(-c2cc(C(=O)N3CCC[C@H]3C(=O)O)on2)cc1)Nc1ccccc1F` [Example 262, (S)-1-(3-(4-(3-(2-Fluorophenyl)ureido)phenyl)isoxazole-5-carbonyl) pyrrolidine-2-carboxylic acid] yielded an inhibition at 1 µM of 50 to 75%. In turn, `COC(=O)[C@@H](NC(=O)c1nc(-c2ccc(NC(=O)Nc3ccc(C)cc3)cc2)no1)C(C)C` [Example 346, (S)-Methyl 3-methyl-2-(3-(4-(3-p-tolylureido)phenyl)-1,2,4-oxadiazole-5-carboxamido)butanoate] had an inhibition at 5 µM of 50 to 75%.

In the case of `COC(=O)C(C)NC(=O)c1cc(-c2ccc(NC(=O)Nc3ccc(F)cc3)cc2)no1` (stereo not drawn) [Example 115, Methyl 2-(3-(4-(3-(4-fluorophenyl)ureido)phenyl)isoxazole-5-carboxamido)propanoate], the inhibition at 10 µM was 0 to 50%. `CC(C)C(NC(=O)c1cc(-c2ccc(OCc3cccc(C(F)(F)F)c3)cc2)no1)C(=O)O` (stereo not drawn) [Example 326, 3-Methyl-2-(3-(4-(3-(trifluoromethyl)benzyloxy)phenyl)isoxazole-5-carboxamido)butanoic acid] displayed an inhibition at 1 µM of 0 to 50%. The compound `CC(C)[C@H](NC(=O)c1cc(-c2ccc(NC(=O)Nc3ccc(Cl)nc3)cc2)no1)C(=O)O` [Example 207, (S)-2-(3-(4-(3-(6-chloropyridin-3-yl)ureido)phenyl)isoxazole-5-carboxamido)-3-methylbutanoic acid] had an inhibition at 1 µM of 0 to 50%. Compound `CC(C)C(NC(=O)c1cc(-c2ccc(NC(=O)Nc3ccc(F)cc3F)cc2)no1)C(=O)O` (stereo not drawn) [Example 112, 2-(3-(4-(3-(2,4-Difluorophenyl)ureido)phenyl)isoxazole-5-carboxamido)-3-methylbutanoic acid] had an inhibition at 10 µM of 75 to 100%. `COC(=O)C(NC(=O)c1cc(-c2ccc(OCc3ccccc3C(F)(F)F)cc2)no1)C(C)C` (stereo not drawn) [Example 329, Methyl 3-methyl-2-(3-(4-(2-(trifluoromethyl)benzyloxy)phenyl)isoxazole-5-carboxamido)butanoate] yielded an inhibition at 1 µM of 0 to 50%.

In general, inhibition refers to how much of the control response was suppressed.

These data come from patent US8835428B2, “Diacylglycerol acyltransferase inhibitors” (Piramal Enterprises Limited, priority 2008, dated 2014).
